System: MV-4-11 cells
Test: Gene expression microarray analysis (Affymetrix PrimeView) and GSEA
Assay type: cell-based, human
Design: RFU PODN (11730768_x_at) / Fold change /veh PODN (11730768_x_at) / RFU LINC00158 (11744669_a_at) / Fold change /veh LINC00158 (11744669_a_at) / RFU DUSP10 (11751237_a_at) / Fold change /veh DUSP10 (11751237_a_at) / RFU ID3 (11757404_x_at) / Fold change /veh ID3 (11757404_x_at) / RFU PLEKHG5 (11737974_s_at) / Fold change /veh PLEKHG5 (11737974_s_at) / RFU LRRC4B (11730491_at) / Fold change /veh LRRC4B (11730491_at) / RFU GIMAP4 (11747438_a_at) / Fold change /veh GIMAP4 (11747438_a_at) / RFU KRT8 (11758183_x_at) / Fold change /veh KRT8 (11758183_x_at) / RFU CNN1 (11734310_a_at) / Fold change /veh CNN1 (11734310_a_at) / RFU VPS37D (11726825_at) / Fold change /veh VPS37D (11726825_at) / RFU C10orf10 (11716522_x_at) / Fold change /veh C10orf10 (11716522_x_at) / RFU KIR2DL2 /// KIR2DL4 /// KIR2DL5A /// KIR2DL5B /// KIR2DS1 /// KIR2DS2 /// KIR2DS3 /// KIR2DS4 /// KIR3DL3 /// KIR3DL3 /// KIR3DS1 (11738374_at) / Fold change /veh KIR2DL2 /// KIR2DL4 /// KIR2DL5A /// KIR2DL5B /// KIR2DS1 /// KIR2DS2 /// KIR2DS3 /// KIR2DS4 /// KIR3DL3 /// KIR3DL3 /// KIR3DS1 (11738374_at) / RFU C1QL1 (11718748_at) / Fold change /veh C1QL1 (11718748_at) / RFU TMPRSS4 (11747572_a_at) / Fold change /veh TMPRSS4 (11747572_a_at) / RFU HAMP (11756126_x_at) / Fold change /veh HAMP (11756126_x_at) / RFU RNFT2 (11725882_a_at) / Fold change /veh RNFT2 (11725882_a_at) / RFU NR4A2 (11747474_a_at) / Fold change /veh NR4A2 (11747474_a_at) / RFU ABCC12 (11746883_a_at) / Fold change /veh ABCC12 (11746883_a_at) / RFU TMEM136 (11760407_x_at) / Fold change /veh TMEM136 (11760407_x_at) / RFU CLDN22 /// WWC2 (11732394_at) / Fold change /veh CLDN22 /// WWC2 (11732394_at) / RFU HLA-DPB1 (11760878_x_at) / Fold change /veh HLA-DPB1 (11760878_x_at) / RFU SPINT1 (11716480_a_at) / Fold change /veh SPINT1 (11716480_a_at) / RFU GAP43 (11754022_s_at) / Fold change /veh GAP43 (11754022_s_at) / RFU A4GNT (11735810_at) / Fold change /veh A4GNT (11735810_at) / RFU PRB3 (11715151_x_at) / Fold change /veh PRB3 (11715151_x_at) / RFU TUBB4B (11761932_at) / Fold change /veh TUBB4B (11761932_at) / RFU CAPN14 (11732068_a_at) / Fold change /veh CAPN14 (11732068_a_at) / RFU TMCC2 (11721928_a_at) / Fold change /veh TMCC2 (11721928_a_at) / RFU IRGQ (11745062_a_at) / Fold change /veh IRGQ (11745062_a_at) / RFU FAM174B (11720279_a_at) / Fold change /veh FAM174B (11720279_a_at) / RFU TMPRSS4 (11748680_a_at) / Fold change /veh TMPRSS4 (11748680_a_at) / RFU FAM212B (11763350_a_at) / Fold change /veh FAM212B (11763350_a_at) / RFU PLEKHG5 (11743358_a_at) / Fold change /veh PLEKHG5 (11743358_a_at) / RFU ZSCAN30 (11745921_a_at) / Fold change /veh ZSCAN30 (11745921_a_at) / RFU CMKLR1 (11741424_a_at) / Fold change /veh CMKLR1 (11741424_a_at) / RFU LOC101060620 /// MAPK8IP1 (11723275_at) / Fold change /veh LOC101060620 /// MAPK8IP1 (11723275_at) / RFU SPTSSB (11747773_x_at) / Fold change /veh SPTSSB (11747773_x_at) / RFU PRSS12 (11739890_at) / Fold change /veh PRSS12 (11739890_at) / RFU BIN1 (11741810_x_at) / Fold change /veh BIN1 (11741810_x_at) / RFU WNT11 (11732464_a_at) / Fold change /veh WNT11 (11732464_a_at) / RFU C10orf10 (11716521_a_at) / Fold change /veh C10orf10 (11716521_a_at) / RFU C5orf56 (11738089_at) / Fold change /veh C5orf56 (11738089_at) / RFU CYB561 (11721691_x_at) / Fold change /veh CYB561 (11721691_x_at) / RFU ANKRD19P (11752326_a_at) / Fold change /veh ANKRD19P (11752326_a_at) / RFU OR2T12 /// OR2T33 /// OR2T8 (11738714_s_at) / Fold change /veh OR2T12 /// OR2T33 /// OR2T8 (11738714_s_at) / RFU VCAN (11748164_a_at) / Fold change /veh VCAN (11748164_a_at) / RFU JSRP1 (11732532_at) / Fold change /veh JSRP1 (11732532_at) / RFU KRTAP10-11 (11738290_x_at) / Fold change /veh KRTAP10-11 (11738290_x_at) / RFU MYO3A (11730013_a_at) / Fold change /veh MYO3A (11730013_a_at) / RFU EBF3 (11725865_a_at) / Fold change /veh EBF3 (11725865_a_at) / RFU CAMK2N1 (11719241_x_at) / Fold change /veh CAMK2N1 (11719241_x_at) / RFU C5orf56 (11738088_a_at) / Fold change /veh C5orf56 (11738088_a_at) / RFU OLFML3 (11715873_a_at) / Fold change /veh OLFML3 (11715873_a_at) / RFU LOC100653217 /// NTM (11731650_a_at) / Fold change /veh LOC100653217 /// NTM (11731650_a_at) / RFU MAPK11 (11762145_a_at) / Fold change /veh MAPK11 (11762145_a_at) / RFU FIZ1 (11724087_x_at) / Fold change /veh FIZ1 (11724087_x_at) / RFU OASL (11726364_x_at) / Fold change /veh OASL (11726364_x_at) / RFU SOX15 (11748057_x_at) / Fold change /veh SOX15 (11748057_x_at) / RFU CD79A (11719716_a_at) / Fold change /veh CD79A (11719716_a_at) / RFU HIST1H1D (11736915_at) / Fold change /veh HIST1H1D (11736915_at) / RFU CASKIN2 (11723855_a_at) / Fold change /veh CASKIN2 (11723855_a_at) / RFU LOC730098 (11760151_x_at) / Fold change /veh LOC730098 (11760151_x_at) / RFU OR4N2 (11742367_at) / Fold change /veh OR4N2 (11742367_at) / RFU PRRT2 (11749266_a_at) / Fold change /veh PRRT2 (11749266_a_at) / RFU SNX32 (11753110_a_at) / Fold change /veh SNX32 (11753110_a_at) / RFU CDHR5 (11726645_a_at) / Fold change /veh CDHR5 (11726645_a_at) / RFU RCAN1 (11760418_a_at) / Fold change /veh RCAN1 (11760418_a_at) / RFU FAM167A (11723789_a_at) / Fold change /veh FAM167A (11723789_a_at) / RFU FAM26E (11764081_at) / Fold change /veh FAM26E (11764081_at) / RFU ISYNA1 (11749810_s_at) / Fold change /veh ISYNA1 (11749810_s_at) / RFU ACY1 (11761880_at) / Fold change /veh ACY1 (11761880_at) / RFU 11764098_at / Fold change /veh 11764098_at / RFU SAMD14 (11745864_x_at) / Fold change /veh SAMD14 (11745864_x_at) / RFU NPB (11741838_a_at) / Fold change /veh NPB (11741838_a_at) / RFU TMPRSS6 (11731388_a_at) / Fold change /veh TMPRSS6 (11731388_a_at) / RFU KRTAP10-2 (11738614_at) / Fold change /veh KRTAP10-2 (11738614_at) / RFU ARHGAP8 /// PRR5-ARHGAP8 (11727945_x_at) / Fold change /veh ARHGAP8 /// PRR5-ARHGAP8 (11727945_x_at) / RFU KRTAP5-7 /// NADSYN1 (11734609_at) / Fold change /veh KRTAP5-7 /// NADSYN1 (11734609_at) / RFU RASL12 (11751679_a_at) / Fold change /veh RASL12 (11751679_a_at) / RFU CDKN2B (11736163_a_at) / Fold change /veh CDKN2B (11736163_a_at) / RFU PRF1 (11729649_at) / Fold change /veh PRF1 (11729649_at) / RFU, ZNF638 /// ZNF638-IT1 / Fold change vs veh, ZNF638 /// ZNF638-IT1 / RFU, PANK3 / Fold change vs veh, PANK3 / RFU, SH3YL1 / Fold change vs veh, SH3YL1 / RFU, ZEB2 / Fold change vs veh, ZEB2 / RFU, NRIP1 / Fold change vs veh, NRIP1 / RFU, PTTG1IP / Fold change vs veh, PTTG1IP / RFU, CAPN2 / Fold change vs veh, CAPN2 / RFU, MED14 / Fold change vs veh, MED14 / RFU, SNORA58 / Fold change vs veh, SNORA58 / RFU, C1orf63 / Fold change vs veh, C1orf63 / RFU, LRRFIP1 / Fold change vs veh, LRRFIP1 / RFU, NDUFAF7 / Fold change vs veh, NDUFAF7 / RFU, SLC12A2 / Fold change vs veh, SLC12A2 / RFU, IBTK / Fold change vs veh, IBTK / RFU, ESF1 / Fold change vs veh, ESF1 / Fold change vs veh, TMEM50B / RFU, TAOK1 / Fold change vs veh, TAOK1 / RFU, ACBD3 / Fold change vs veh, ACBD3 / RFU, TMA16 / Fold change vs veh, TMA16 / RFU, RWDD3 / Fold change vs veh, RWDD3 / RFU, BCAT1 / Fold change vs veh, BCAT1 / RFU, EDEM3 / Fold change vs veh, EDEM3 / RFU, TMEM33 / Fold change vs veh, TMEM33 / RFU, WDR75 / Fold change vs veh, WDR75 / RFU, AHCTF1 / Fold change vs veh, AHCTF1 / RFU, TFRC / Fold change vs veh, TFRC / RFU, ZDHHC17 / Fold change vs veh, ZDHHC17 / RFU, NOM1 / Fold change vs veh, NOM1 / RFU, ARL8B / Fold change vs veh, ARL8B / RFU, ZBTB11 / Fold change vs veh, ZBTB11 / RFU, TAMM41 / Fold change vs veh, TAMM41 / RFU, KIAA1704 /// LOC100996395 / Fold change vs veh, KIAA1704 /// LOC100996395 / RFU, ING1 / Fold change vs veh, ING1 / RFU, TRMT61B / Fold change vs veh, TRMT61B / RFU, FUBP3 / Fold change vs veh, FUBP3 / RFU, TP53 / Fold change vs veh, TP53 / RFU, TNKS2 / Fold change vs veh, TNKS2 / RFU, ZFP14 / Fold change vs veh, ZFP14 / RFU, ACTR2 / Fold change vs veh, ACTR2 / RFU, PPP3R1 / Fold change vs veh, PPP3R1 / RFU, PIK3R1 / Fold change vs veh, PIK3R1 / RFU, HNRNPA1 / Fold change vs veh, HNRNPA1 / RFU, RNF170 / Fold change vs veh, RNF170 / RFU, ZNF28 / Fold change vs veh, ZNF28 / RFU, RNGTT / Fold change vs veh, RNGTT / RFU, OGT / Fold change vs veh, OGT / RFU, BRD1 / Fold change vs veh, BRD1 / RFU, MARS / Fold change vs veh, MARS / RFU, ZNF655 / Fold change vs veh, ZNF655 / RFU, FAHD1 / Fold change vs veh, FAHD1 / RFU, BDP1 / Fold change vs veh, BDP1 / RFU, LRRCC1 / Fold change vs veh, LRRCC1 / RFU, ARID1A / Fold change vs veh, ARID1A / RFU, ZNF146 / Fold change vs veh, ZNF146 / RFU, ZNF330 / Fold change vs veh, ZNF330 / RFU, GPN3 / Fold change vs veh, GPN3 / RFU, C9orf123 / Fold change vs veh, C9orf123 / RFU, N4BP2L2 / Fold change vs veh, N4BP2L2 / RFU, ARFIP1 / Fold change vs veh, ARFIP1 / RFU, FAM179B / Fold change vs veh, FAM179B / RFU, BCL10 / Fold change vs veh, BCL10 / RFU, UHRF1BP1L / Fold change vs veh, UHRF1BP1L / RFU, BET1 / Fold change vs veh, BET1 / RFU, CNOT2 / Fold change vs veh, CNOT2 / RFU, ZNF268 / Fold change vs veh, ZNF268 / Fold change vs veh, ZNF507 / RFU, DGCR2 / Fold change vs veh, DGCR2 / RFU, WDSUB1 / Fold change vs veh, WDSUB1 / Fold change vs veh, HSP90B1 /// MIR3652 / RFU, ADSS / Fold change vs veh, ADSS / RFU, GK / Fold change vs veh, GK / RFU, ZNF148 / Fold change vs veh, ZNF148 / RFU, TAF9 / Fold change vs veh, TAF9 / RFU, SLC1A5 / Fold change vs veh, SLC1A5 / RFU, SLMO2 / Fold change vs veh, SLMO2 / RFU, ABCC4 / Fold change vs veh, ABCC4 / RFU, LOC101060439 /// RAP1B / Fold change vs veh, LOC101060439 /// RAP1B / RFU, RFX7 / Fold change vs veh, RFX7 / RFU, GTPBP10 / Fold change vs veh, GTPBP10 / RFU, CNEP1R1 / Fold change vs veh, CNEP1R1 / RFU, BIVM-ERCC5 /// ERCC5 / Fold change vs veh, BIVM-ERCC5 /// ERCC5 / RFU, ILF3 / Fold change vs veh, ILF3 / RFU 11762660_at / Fold change /veh 11762660_at / RFU VCAN (11757783_s_at) / Fold change /veh VCAN (11757783_s_at) / RFU DDX43 (11728927_at) / Fold change /veh DDX43 (11728927_at) / RFU KRT8 (11758188_x_at) / Fold change /veh KRT8 (11758188_x_at) / RFU NKD1 (11759106_at) / Fold change /veh NKD1 (11759106_at) / RFU SRD5A1 (11742802_a_at) / Fold change /veh SRD5A1 (11742802_a_at) / RFU TPSAB1 /// TPSB2 (11721975_s_at) / Fold change /veh TPSAB1 /// TPSB2 (11721975_s_at) / RFU GSTM3 (11746129_a_at) / Fold change /veh GSTM3 (11746129_a_at) / RFU IL23R (11737362_x_at) / Fold change /veh IL23R (11737362_x_at) / RFU TMEM51 (11727254_a_at) / Fold change /veh TMEM51 (11727254_a_at) / RFU PIWIL2 (11732686_x_at) / Fold change /veh PIWIL2 (11732686_x_at) / RFU ORM1 (11744905_x_at) / Fold change /veh ORM1 (11744905_x_at) / RFU CCDC152 (11743942_at) / Fold change /veh CCDC152 (11743942_at) / RFU ECM1 (11717891_a_at) / Fold change /veh ECM1 (11717891_a_at) / RFU IL23R (11748794_a_at) / Fold change /veh IL23R (11748794_a_at) / RFU TNFAIP8L3 (11732012_x_at) / Fold change /veh TNFAIP8L3 (11732012_x_at) / RFU MBOAT4 (11741988_at) / Fold change /veh MBOAT4 (11741988_at) / RFU 11764193_at / Fold change /veh 11764193_at / RFU TMEM53 (11763286_at) / Fold change /veh TMEM53 (11763286_at) / RFU MAGEB2 (11727129_at) / Fold change /veh MAGEB2 (11727129_at) / RFU TMEM200A (11744735_a_at) / Fold change /veh TMEM200A (11744735_a_at) / RFU CCDC152 (11751479_a_at) / Fold change /veh CCDC152 (11751479_a_at) / RFU FAM211A (11726209_a_at) / Fold change /veh FAM211A (11726209_a_at) / RFU RGS16 (11746705_a_at) / Fold change /veh RGS16 (11746705_a_at) / RFU VCAN (11755009_s_at) / Fold change /veh VCAN (11755009_s_at) / RFU RHOB (11743442_s_at) / Fold change /veh RHOB (11743442_s_at) / RFU RGS16 (11720943_a_at) / Fold change /veh RGS16 (11720943_a_at) / RFU RGS16 (11720944_at) / Fold change /veh RGS16 (11720944_at) / RFU, VPS4B / Fold change vs veh, VPS4B / RFU, CREB1 / Fold change vs veh, CREB1 / RFU, DNAJC13 / Fold change vs veh, DNAJC13 / RFU, GNAQ / Fold change vs veh, GNAQ / RFU, CDK5R1 / Fold change vs veh, CDK5R1 / RFU, ZRANB3 / Fold change vs veh, ZRANB3 / RFU, CUL4A / Fold change vs veh, CUL4A / RFU, CCNY / Fold change vs veh, CCNY / RFU, UFL1 / Fold change vs veh, UFL1 / RFU, COG3 / Fold change vs veh, COG3 / RFU, DIAPH2 / Fold change vs veh, DIAPH2 / RFU, SKA2 / Fold change vs veh, SKA2 / RFU, AFF3 / Fold change vs veh, AFF3 / RFU, LMF1 / Fold change vs veh, LMF1 / RFU, IPO11 / Fold change vs veh, IPO11 / RFU, DFFB / Fold change vs veh, DFFB / RFU, FOXP1 / Fold change vs veh, FOXP1 / RFU, CARD8 / Fold change vs veh, CARD8 / RFU, STRN3 / Fold change vs veh, STRN3 / RFU, ADK / Fold change vs veh, ADK / RFU, RASSF2 / Fold change vs veh, RASSF2 / RFU, WIPF1 / Fold change vs veh, WIPF1 / RFU, LARP1B / Fold change vs veh, LARP1B / RFU, RASA1 / Fold change vs veh, RASA1 / RFU, RB1 / Fold change vs veh, RB1 / RFU, PPFIA1 / Fold change vs veh, PPFIA1 / RFU, MAT2A / Fold change vs veh, MAT2A / RFU, CCT5 / Fold change vs veh, CCT5 / RFU, WDR92 / Fold change vs veh, WDR92 / RFU, CUX1 / Fold change vs veh, CUX1 / RFU, TTC7A / Fold change vs veh, TTC7A / RFU, TMEM135 / Fold change vs veh, TMEM135 / RFU, DEPTOR / Fold change vs veh, DEPTOR / RFU, CPM / Fold change vs veh, CPM / RFU, DNAJB6 / Fold change vs veh, DNAJB6 / RFU, CACNA2D3 / Fold change vs veh, CACNA2D3 / RFU, DTX4 / Fold change vs veh, DTX4 / RFU, TFCP2 / Fold change vs veh, TFCP2 / RFU, GMCL1 /// GMCL1P1 / Fold change vs veh, GMCL1 /// GMCL1P1 / RFU, AEBP2 / Fold change vs veh, AEBP2 / RFU, SNHG1 /// SNORD22 /// SNORD25 /// SNORD26 /// SNORD27 /// SNORD28 /// SNORD29 /// SNORD31 / Fold change vs veh, SNHG1 /// SNORD22 /// SNORD25 /// SNORD26 /// SNORD27 /// SNORD28 /// SNORD29 /// SNORD31 / Fold change (Aza/veh), C12orf56 (ProbeSet 11735607_a_at) / Fold change (ACY-1035/veh), C12orf56 (ProbeSet 11735607_a_at) / Fold change (Aza/veh), FGFR1OP (ProbeSet 11751329_s_at) / Fold change (ACY-1035/veh), FGFR1OP (ProbeSet 11751329_s_at) / Fold change (Aza/veh), VPS36 (ProbeSet 11739960_a_at) / Fold change (ACY-1035/veh), VPS36 (ProbeSet 11739960_a_at) / RFU SYPL1 (11715823_x_at) / Fold change /veh SYPL1 (11715823_x_at) / RFU IGFBP7 (11715501_s_at) / Fold change /veh IGFBP7 (11715501_s_at) / RFU REEP3 (11722064_at) / Fold change /veh REEP3 (11722064_at) / RFU IGLL1 (11728026_x_at) / Fold change /veh IGLL1 (11728026_x_at): dose or concentration left out as unconfirmed
Settings: ProbeSet 11720154_at; LIST B

Nc1ncn([C@@H]2O[C@H](CO)[C@@H](O)[C@H]2O)c(=O)n1 [azacitidine]
RFU, NRIP1: 462.80 RFU

Reference: publication PMC5218480 (PLoS ONE, 2017)
